Legend:
[1] = Pharmacokinetics in C57 mice; conditions: C57, mouse, in vivo
Procedure: After subcutaneous or intravenous administration to C57 mice, plasma was collected and the drug concentration in plasma was determined to illustrate the in vivo pharmacokinetic properties of the compound according to the present invention. […] 20.0 µL of thawed plasma sample was taken. 20 µL of 50% aqueous methanol solution (containing 100 ng mL^-1 Tolbutamide) and 60 µL of acetonitrile were added sequentially to precipitate protein. The mixture was vortexed for 5 minutes, and centrifuged at 4815 rpm for 8 minutes. 50.0 µL of the supernatant was taken, into which 50.0 µL of 0.5% aqueous formic acid solution was added. The mixture was vortexed for 5 minutes. 50 µL of the mixture solution was sampled and injected into the LC-MS/MS to determine the drug concentration in plasma. Based on the drug concentration in plasma of the compounds in C57 mice, the pharmacokinetic parameters were calculated by applying the software Winnolin 8.3 in a non-compartmental model, and the results were shown in Table 7 and Table 8 below. Table 7 Average Pharmacokinetic Parameters after Single Subcutaneous Administration to Mice

[2] = Pharmacokinetics in cynomolgus monkeys; conditions: cynomolgus monkey, in vivo, sc
Procedure: After subcutaneous or intravenous administration to cynomolgus monkeys, plasma was collected and the drug concentration in plasma was determined to illustrate the in vivo pharmacokinetic properties of the compound according to the present invention. […] 70.0 µL of thawed plasma sample was taken. 70 µL of acetonitrile (containing 1 ng/ml of the internal standard) was added to precipitate protein. […] The mixture was vortexed for 5 minutes. 10 µL of the mixture solution was sampled and injected into the LC-MS/MS to determine the drug concentration in plasma. […] Table 9 Average Pharmacokinetic Parameters after Single Subcutaneous Administration to Cynomolgus Monkeys

[3] = tested on: db/db mice; test: Pharmacodynamic effects in db/db mice, single subcutaneous administration (blood glucose); assay type: in vivo; conditions: single s.c. 10 nmol/kg
Procedure: (§1) In this study, 8-9 week old male db/db mice were used. The db/db mice were placed in an individual ventilated cage (IVC) facility with a controlled temperature (20-26°C) and humidity (40-70%) and a controlled 12h:12 h light-dark cycle. The mice can receive food and water ad libitum. Blood was sampled at the tail tip, and the random base blood glucose was measured by a Roche blood glucose meter. The mice were randomly divided into groups according to the random initial fasting blood glucose and initial body weight (n=6/group), and each group had similar body weight and blood glucose.
After a single subcutaneous administration, the random base blood glucoses were recorded at the set time point (0 to 120 hours, the recording of the random base blood glucose was stopped until there was no difference between the random base blood glucose of the compound and that of the vehicle group), and the daily body weight and food intake were also recorded. The data results were statistically analyzed using GraphPad Prism8, and the statistical differences among the groups were analyzed following a T-Test. Significant differences were identified at p<0.05.
Hypoglycemic Duration: the longest time during which the random base blood glucose of the compound has a significant difference (p<0.05) vs. the vehicle group. Table 13. Hypoglycemic Duration of the Compounds

[4] = tested on: db/db mice; test: Multiple administration experiment on db/db mice; assay type: in vivo; conditions: for AUC 4-25 day Glu / D28 FBG(Fasting Blood Glucose) / Liver Weight / Serum ALT / Serum TBIL / Serum TG: db/db mice, s.c. every 3 days for 4 weeks, Mean±SEM, 6 mice
Procedure: "Minimum effective dose" as disclosed in the present invention refers to the minimum administration dose at which the drug effect is produced.
"Efficacy dose" as disclosed in the present invention refers to the administration dose at which the drug effect is produced.
as §1, with “study, 7-8” for “study, 8-9”, “controlled 12:12” for “controlled 12h:12”, “mice received” for “mice can receive”, “Blood were” for “Blood was”, “the” for “the random”, “initial” for “initial fasting”
The mice were subcutaneously administrated every 3 days for 4 weeks. Subcutaneous administration was conducted on days 1, 4, 7, 10, 13, 16, 19, 22 and 25. Random blood glucose was recorded every 3 days throughout the study. On day 28, the fasting blood glucose was measured. Then the blood was collected by orbital blood sampling. After the orbital blood sampling, the animals were sacrificed, and the liver was taken and weighed. After 1 to 2 hours, the collected blood was centrifuged at 3000 rpm for 10 min to separate the serum. Biochemical indicators such as triglyceride (TG), alanine aminotransferase (ALT), and total bilirubin (TBIL) were determined with a biochemical analyzer. The data results were statistically analyzed using GraphPad Prism8, and the statistical differences among the groups were analyzed following T-Test. Significant differences were identified at p<0.05.

[5] = target: human GLP-1R (Homo sapiens, UniProt P43220); test: In vitro binding activity to human GLP-1 receptor ([125I]GLP-1 displacement, crude cell membranes); design: expressed in transfected cells; conditions: ratio of the Ki value of the endogenous ligand to the Ki value of the test compound; larger ratio = stronger binding
Procedure: 89 µL of membrane dissolved in binding buffer (50 mM Hepes, pH 7.4, 5 mM MgCl2 , 5 mM EDTA, 0.005% TWEEN, 0.005% HSA) was transferred to a 96-well test plate (5 µg/well). The compound was serially diluted in DMSO, and then, 1 µL of the diluted compound or 100% DMSO was added to the test plate containing the membrane solution. 10 µL of [^125I] […] The test plate was left at room temperature for 90 minutes. The membrane complexes were harvested into a GF/B plate pre-coated with 0.5% PEI by using a Cell Harvester, and washed for 3 times with 500 µL of pre-cooled elution buffer (50 mM Hepes, pH 7.4, 500 mM NaCl) at 4°C. After drying at 37°C for 2 hours, 50 µL of scintillation fluid was added to each well. The plate was read with a MicroBeta2 scintillation counter after sealing and settling for at least 1 hour so as to determine the membrane bound radioligand level.
The IC50 concentration was converted to Ki (Ki was the inhibition constant) using the Cheng-Prusoff equation.

human GLP-1R, sequence (P43220 24-463): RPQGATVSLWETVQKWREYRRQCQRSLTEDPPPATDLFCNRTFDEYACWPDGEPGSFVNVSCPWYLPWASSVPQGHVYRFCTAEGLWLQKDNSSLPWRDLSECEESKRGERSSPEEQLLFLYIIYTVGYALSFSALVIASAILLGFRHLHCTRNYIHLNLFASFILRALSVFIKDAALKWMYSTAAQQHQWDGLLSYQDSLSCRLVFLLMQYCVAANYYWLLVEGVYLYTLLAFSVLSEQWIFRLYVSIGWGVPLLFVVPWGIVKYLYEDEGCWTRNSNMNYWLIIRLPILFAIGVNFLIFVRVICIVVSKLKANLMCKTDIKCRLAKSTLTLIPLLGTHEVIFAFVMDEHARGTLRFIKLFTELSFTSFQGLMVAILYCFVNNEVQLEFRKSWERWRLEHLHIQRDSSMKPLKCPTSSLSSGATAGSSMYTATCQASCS

SMILES | Tmax [2] | half-life [2] | AUC 4-25 day Glu ([4]; 3 nmol/kg) | D28 FBG(Fasting Blood Glucose) ([4]; 3 nmol/kg) | Liver Weight ([4]; 3 nmol/kg) | Serum ALT ([4]; 3 nmol/kg) | Serum TBIL ([4]; 3 nmol/kg) | Serum TG ([4]; 3 nmol/kg) | AUC 4-25 day Glu ([4]; 10 nmol/kg) | D28 FBG(Fasting Blood Glucose) ([4]; 10 nmol/kg) | Liver Weight ([4]; 10 nmol/kg) | Serum ALT ([4]; 10 nmol/kg) | Serum TBIL ([4]; 10 nmol/kg) | Serum TG ([4]; 10 nmol/kg) | AUC 4-25 day Glu ([4]; 30 nmol/kg) | D28 FBG(Fasting Blood Glucose) ([4]; 30 nmol/kg) | Liver Weight ([4]; 30 nmol/kg) | Serum ALT ([4]; 30 nmol/kg) | Serum TBIL ([4]; 30 nmol/kg) | Serum TG ([4]; 30 nmol/kg) | other results
CC[C@H](C)[C@H](NC(=O)C(C)(C)NC(=O)[C@H](Cc1ccc(O)cc1)NC(=O)[C@H](CC(=O)O)NC(=O)[C@H](CO)NC(=O)[C@@H](NC(=O)C(C)(Cc1ccccc1)NC(=O)[C@@H](NC(=O)CNC(=O)[C@H](CCC(=O)O)NC(=O)C(C)(C)NC(=O)[C@@H](N)Cc1ccc(O)cc1)[C@@H](C)O)[C@@H](C)O)C(=O)NC(C)(C)C(=O)N[C@@H](CC(C)C)C(=O)N[C@@H](CC(=O)O)C(=O)N[C@@H](CCCCN)C(=O)N[C@@H](CCC(N)=O)C(=O)N[C@@H](C)C(=O)N[C@@H](CCC(N)=O)C(=O)N[C@@H](C)C(=O)N[C@@H](CCC(=O)O)C(=O)N[C@@H](Cc1ccccc1)C(=O)N[C@H](C(=O)N[C@@H](CCCCNC(=O)COCCOCCNC(=O)COCCOCCNC(=O)CC[C@H](NC(=O)CCCCCCCCCCCCCCCCCCCCC(=O)O)C(=O)O)C(=O)N[C@@H](Cc1c[nH]c2ccccc12)C(=O)N[C@@H](CC(C)C)C(=O)N[C@@H](CC(C)C)C(=O)N[C@@H](CCCCN)C(=O)NCC(=O)NCC(=O)N1CCC[C@H]1C(=O)N[C@@H](CO)C(=O)N[C@@H](CO)C(=O)NCC(=O)N[C@@H](C)C(=O)N1CCC[C@H]1C(=O)N1CCC[C@H]1C(=O)N1CCC[C@H]1C(=O)N[C@@H](CO)C(=O)N[C@@H](CCCCN)C(N)=O)C(C)C (stereo partly drawn) [Compound P014] | 16 ± 6.93 h | 52.7 ± 6.45 h | 294 ± 40.43 mmol·days/L | 10.22 ± 1.58 mmol/L | 2.26 ± 0.18 g | 111.24±13.23 U/L | 0.58 ± 0.11 µmol/L | 1.39 ± 0.07 mmol/L | 214.4 ± 33.73 mmol·days/L | 10.72 ± 1.75 mmol/L | 2.1 ± 0.14 g | 89.9±8.66 U/L | 0.58 ± 0.15 µmol/L | 1.29 ± 0.03 mmol/L | 190.62 ± 26.47 mmol·days/L | 13.38 ± 3.38 mmol/L | 1.89 ± 0.31 g | 106.47±14.3 U/L | 0.36 ± 0.15 µmol/L | 1.14 ± 0.18 mmol/L | AUC(0-inf) ([1]; iv): 18200 ng·h/mL; AUC(0-t) ([1]; iv): 17500 ng·h/mL; C0 ([1]; iv): 1940 ng/mL; half-life ([1]; iv): 17.2 h; MRT ([1]; iv, MRT(0-t)): 15.7 h; MRT ([1]; iv, MRT(0-∞)): 19.2 h; AUC(0-inf) ([1]; sc): 30200 ng·h/mL; AUC(0-t) ([1]; sc): 27300 ng·h/mL; Cmax ([1]; sc): 852 ng/mL; Tmax ([1]; sc): 6 h; half-life ([1]; sc): 20.3 h; MRT ([1]; sc, MRT(0-t)): 22.9 h; MRT ([1]; sc, MRT(0-∞)): 30.3 h; inhibition of the blood glucose AUC, times of that of P001 [3]: 2.6 times; inhibition of the blood glucose AUC, times of that of Tirzepatide [3]: 1.7 times; Hypoglycemic Duration ([3]; Group 1, longest time with p<0.05 vs. vehicle): 104 h; Efficacy Dose ([4]; db/db mice multiple administrations, dose with blood glucose AUC p<0.05 vs. Vehicle): 3 nmol/kg; GLP-1R Ki ratio [5]: 0.37
CC[C@H](C)[C@H](NC(=O)C(C)(C)NC(=O)[C@H](Cc1ccc(O)cc1)NC(=O)[C@H](CC(=O)O)NC(=O)[C@H](CO)NC(=O)[C@@H](NC(=O)C(C)(Cc1ccccc1)NC(=O)[C@@H](NC(=O)CNC(=O)[C@H](CCC(=O)O)NC(=O)C(C)(C)NC(=O)[C@@H](N)Cc1ccc(O)cc1)[C@@H](C)O)[C@@H](C)O)C(=O)NC(C)(C)C(=O)N[C@@H](CC(C)C)C(=O)N[C@@H](CC(=O)O)C(=O)N[C@@H](CCCCN)C(=O)N[C@@H](CCC(N)=O)C(=O)N[C@@H](C)C(=O)N[C@@H](CCC(N)=O)C(=O)N[C@@H](C)C(=O)N[C@@H](CCC(=O)O)C(=O)N[C@@H](Cc1ccccc1)C(=O)N[C@H](C(=O)N[C@@H](CCCCN)C(=O)N[C@@H](Cc1c[nH]c2ccccc12)C(=O)N[C@@H](CC(C)C)C(=O)N[C@@H](CC(C)C)C(=O)N[C@@H](CCCCNC(=O)COCCOCCNC(=O)COCCOCCNC(=O)CC[C@H](NC(=O)CCCCCCCCCCCCCCCCCCCCC(=O)O)C(=O)O)C(=O)NCC(=O)NCC(=O)N1CCC[C@H]1C(=O)N[C@@H](CO)C(=O)N[C@@H](CO)C(=O)NCC(=O)N[C@@H](C)C(=O)N1CCC[C@H]1C(=O)N1CCC[C@H]1C(=O)N1CCC[C@H]1C(=O)N[C@@H](CO)C(=O)N[C@@H](CCCCN)C(N)=O)C(C)C (stereo partly drawn) [Compound P017] | 48 ± 24 h | 44.3 ± 4.8 h | 303.78 ± 33.24 mmol·days/L | 11.68 ± 1.7 mmol/L | 2.14 ± 0.08 g | 105.16±7.1 U/L | 0.88 ± 0.26 µmol/L | 1.58 ± 0.17 mmol/L | 249.65 ± 47.65 mmol·days/L | 11.95 ± 2.51 mmol/L | 2.11 ± 0.09 g | 141.65±12.72 U/L | 1.59 ± 0.07 µmol/L | 1.19 ± 0.05 mmol/L | 294.96 ± 11.96 mmol·days/L | 10.08 ± 0.79 mmol/L | 2.35 ± 0.09 g | 176.48±51.6 U/L | 1.11 ± 0.1 µmol/L | 1.09 ± 0.06 mmol/L | Hypoglycemic Duration ([3]; Group 2, longest time with p<0.05 vs. vehicle): 72 h; GLP-1R Ki ratio [5]: 0.56

Reference: patent EP4813403A1, “USE OF GLP-1R/GIPR DOUBLE-TARGET AGONIST IN PREPARING ANIMAL DRUG” (Hangzhou Zhongmeihuadong Pharmaceutical Co., Ltd., priority 2023, dated 2025)
